From paper PMC3960879 (Biology, 2013)

Key:
Conditions in all cases: CFG glycan array version 2; F17G at 200 µg/mL; SEM in parentheses
F17fG lectin domain = assay: CFG mammalian printed glycan array version 2 (experiment 400), F17fG; format: binding, Escherichia coli
From the text: (§1) The slide was dried under a stream of nitrogen.

F17bG lectin domain = F17bG lectin domain (Escherichia coli, UniProt Q47200)
Description: (§2) A microarray presenting 264 different glycans (mammalian printed array version 2) was used to evaluate if the F17G variant lectin domains differ in the range of glycan receptors that they recognize, thereby establishing tropism. The microarray was set up within the Consortium for Functional Glycomics (CFG) ([20], and supplemental data). Binding of F17G (200 µg/mL) was detected using anti-F17G polyclonal rabbit IgG (10 µg/mL), followed by fluorescently labelled goat anti-rabbit polyclonal antibodies (IgG-488, 5 µg/mL).
(§3) A microarray presenting 264 different glycans (mammalian printed array version 2 from the CFG, experiment 400) was used to evaluate whether the F17G variant lectin domains differ in the range of glycan receptors that they can recognize, thereby establishing strain-dependent tropism. […] The glycan array screening has been repeated for F17aG only on printed array version 4.1 (experiment 2053) (Figure 1).
(§4) Printed array version 2 at the Consortium for Functional Glycomics was used for glycan array screening of the variant F17G receptor binding domains. Slides were printed, with six replicates for each glycan, using glycan spotting concentrations of 100 μM, at the Consortium Carbohydrate Synthesis/Protein Expression Core D located at the Scripps Research Institute onto Schott Nexterion H slides (Schott Cat. No. 1070936B). Slide conditioning: preprinted slides were soaked in deionized water for 5 minutes at room temperature and dried under a stream of nitrogen. TSM buffer (20 mM Tris-HCl, pH 7.4, or MOPS 20 mM; 150 mM NaCl; 2 mM CaCl2, 2 mM MgCl2) was used as wash buffer (TSM buffer + 0.05% Tween 20) or binding buffer (TSM buffer + 0.05% Tween 20 + 1% BSA). (1) F17G was diluted to 200 μg/mL (Figure 1) in TSM binding buffer. (2) 50 μL of F17G was applied to the printed surface and coverslipped. (3) The slide was incubated, protected from light, in a humidified chamber for 1 hour at RT. (4) The slide was washed once in TSM wash buffer. 50 μL of the anti-F17G (10 μg/mL) polyclonal rabbit IgG were applied, coverslipped and incubated for 1 h at RT. (5) The slide was washed once in TSM wash buffer. Fifty μL of fluorescently labelled secondary goat anti-rabbit polyclonal antibodies (IgG-488, 5 µg/mL) were applied, coverslipped and incubated for 1 h at RT. (6) Slide was removed, followed by the coverslip, and washed for 10 s each in TSM wash buffer, TSM wash buffer lacking Tween 20, and deionized water. The slide was dried under a stream of nitrogen. (7) The binding image was read in a Perkin Elmer Microscanarray XL4000 scanner and tiff file of image stored. (8) Image analysis was performed using Imagene (V.6) image analysis software. (9) Raw data results files were generated in Excel format and uploaded to the Consortium database as .dat files. (10) Imagene data was uploaded to the database as .txt files.

F17aG lectin domain = F17aG lectin domain (Escherichia coli, UniProt Q99003)
Description: as §2, §3, §4

F17dG lectin domain = F17dG lectin domain (Escherichia coli, UniProt Q47199)
Description: as §2, §3, §4

F17eG lectin domain = assay: CFG mammalian printed glycan array version 2 (experiment 400), F17eG; format: binding, Escherichia coli
From the text: as §1

Sequence of F17aG lectin domain (Q99003 23-199): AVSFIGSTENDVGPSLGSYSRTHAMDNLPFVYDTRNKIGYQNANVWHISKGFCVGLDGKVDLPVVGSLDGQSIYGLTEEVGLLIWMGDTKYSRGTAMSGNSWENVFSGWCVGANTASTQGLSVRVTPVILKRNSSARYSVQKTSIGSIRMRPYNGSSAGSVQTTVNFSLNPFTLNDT
Sequence of F17dG lectin domain (Q47199 23-199): as the sequence (Q99003 23-199) above, with L16P, D33N, R35G, K37N, H47R, K90N counted along it
Sequence of F17bG lectin domain (Q47200 23-199): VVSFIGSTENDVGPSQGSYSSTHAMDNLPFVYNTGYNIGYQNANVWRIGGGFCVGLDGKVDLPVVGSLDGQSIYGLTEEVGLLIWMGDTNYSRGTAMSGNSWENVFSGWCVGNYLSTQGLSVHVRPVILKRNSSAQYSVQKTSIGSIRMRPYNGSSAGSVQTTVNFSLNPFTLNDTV

Substance | Relative Fluorescence Units (RFU), averaged over six replicates, F17fG (F17fG lectin domain) | Relative Fluorescence Units (RFU), averaged over six replicates, F17bG (F17bG lectin domain) | Relative Fluorescence Units (RFU), averaged over six replicates, F17aG (F17aG lectin domain) | Relative Fluorescence Units (RFU), averaged over six replicates, F17dG (F17dG lectin domain) | Relative Fluorescence Units (RFU), averaged over six replicates, F17eG (F17eG lectin domain)
GlcNAcβ1,2Galβ1,3GalNAcα-Sp8 | 563 (125) RFU | 1,016 (239) RFU | 5,082 (4,924) RFU | 75 (35) RFU | 305 (148) RFU
GlcNAcβ1,3Galβ1,3GalNAcα-Sp8 | 31,661 (2,807) RFU | 10,655 (880) RFU | 7,713 (866) RFU | 3,999 (1,481) RFU | 47,984 (3,178) RFU
GlcNAcβ1,3Galβ1,4GlcNAcβ1,3Galβ1,4GlcNAcβ-Sp0 | 4,334 (856) RFU | 7,563 (2,744) RFU | 10,917 (811) RFU | 3,599 (772) RFU | 43,425 (4,065) RFU
GlcNAcβ1,3Galβ1,4Glcβ-Sp0 | 26,336 (7,255) RFU | 13,149 (2,286) RFU | 57,013 (5,191) RFU | 29,181 (3,281) RFU | 54,005 (5,715) RFU
GlcNAcβ1,4(GlcNAcβ1,6)GalNAcα-Sp8 | 19,830 (4,279) RFU | 12,960 (1,692) RFU | 4,520 (2,808) RFU | 1,680 (92) RFU | 38,200 (2,394) RFU
GlcNAcβ1,4Galβ1,4GlcNAcβ-Sp8 | 7,176 (2,338) RFU | 13,001 (2,039) RFU | 12,499 (1,921) RFU | 1,056 (190) RFU | 39,794 (6,245) RFU
GlcNAcβ1,6GalNAcα-Sp8 | 26,522 (11,365) RFU | 6,683 (947) RFU | 11,120 (1,871) RFU | 2,432 (406) RFU | 43,848 (4,140) RFU
GlcNAcβ1,6Galβ1,4GlcNAcβ-Sp8 | 2,269 (561) RFU | 5,372 (746) RFU | 9,029 (1,096) RFU | 5,119 (1,633) RFU | 40,973 (6,555) RFU
GlcNAcβ1-3Galβ1,4GlcNAcβ-Sp8 | 28,888 (6,925) RFU | 15,483 (1,729) RFU | 51,880 (5,023) RFU | 17,991 (4,401) RFU | 49,223 (5,377) RFU
Neu5Acα2,3(Neu5Acα2,6)GalNAcα-Sp8 | 1,717 (229) RFU | 4,331 (1,760) RFU | 4,527 (4,043) RFU | 1,388 (1,162) RFU | 1,229 (1,162) RFU
